Test results as given in ChEMBL document CHEMBL5523725, “Fragment-Based Anti-inflammatory Agent Design and Target Identification: Discovery of AF-45 as an IRAK4 Inhibitor to Treat Ulcerative Colitis and Acute Lung Injury” (J Med Chem, 2024).
Calls of active or inactive are those of the source.

Columns and labels:
[1] = tested on: RAW264.7; experiment: Inhibition of NFkappaB/MAPK signaling pathway in mouse RAW264.7 cells assessed as reduction in LPS-induced p38 phosphorylation at 50 uM by Western blot analysis; type: cell-based
[2] = tested on: RAW264.7; experiment: Inhibition of NFkappaB/MAPK signaling pathway in mouse RAW264.7 cells assessed as reduction in LPS-induced p65 phosphorylation at 50 uM by Western blot analysis; type: cell-based
[3] = tested on: Mus musculus; experiment: Antiinflammatory activity in male C57BL/6 mouse model of DSS-induced ulcerative colitis assessed as reduction in macrophage infiltration in colon at 10 mg/kg, po administered for 11 days with subsequent administration of DSS for 8 days by F4/80 labeling based immunohistochemistry analysis; type: functional, organism-based; settings: time 11.0 day
[4] = tested on: Mus musculus; experiment: Antiinflammatory activity in male C57BL/6 mouse model of DSS-induced ulcerative colitis assessed as restoration of protein status at 10 mg/kg, po administered for 11 days with subsequent administration of DSS for 8 days by H and E staining based analysis; type: functional, organism-based; settings: time 11.0 day
[5] = tested on: Mus musculus; experiment: In vivo binding affinity to IRAK4 in DSS-induced ulcerative colitis C57BL/6 mouse colon assessed as thermal stabilization at 10 mg/kg, po administered for 11 days with subsequent administration of DSS for 8 days by CETSA; type: functional, organism-based; settings: time 11.0 day
[6] = tested on: Mus musculus; experiment: Antiinflammatory activity in male C57BL/6 mouse model of DSS-induced ulcerative colitis assessed as preservation of goblet cells at 10 mg/kg, po administered for 11 days with subsequent administration of DSS for 8 days by H and E staining based analysis; type: functional, organism-based; settings: time 11.0 day
[7] = tested on: RAW264.7; experiment: Inhibition of NFkappaB/MAPK signaling pathway in mouse RAW264.7 cells assessed as reduction in LPS-induced JNK phosphorylation at 50 uM by Western blot analysis; type: cell-based
[8] = Half life in po dosed rat; type: ADME, organism-based; settings: in vivo
[9] = tested on: Mus musculus; experiment: Anti-colitis activity in male C57BL/6 mouse model of DSS-induced ulcerative colitis assessed as colon length at 10 mg/kg, po administered for 11 days with subsequent administration of DSS for 8 days (reference value: 5.2 cm); type: functional; settings: time 11 day
[10] = tested on: Mus musculus; experiment: Antiinflammatory activity in male C57BL/6 mouse model of DSS-induced ulcerative colitis assessed as reduction in TNF-alpha level in serum at 10 mg/kg, po administered for 11 days with subsequent administration of DSS for 8 days by ELISA; type: functional, organism-based; settings: time 11.0 day
[11] = tested on: RAW264.7; experiment: Inhibition of NFkappaB/MAPK signaling pathway in mouse RAW264.7 cells assessed as reduction in LPS-induced IkappaBalpha degradation at 50 uM by Western blot analysis; type: cell-based
[12] = tested on: Mus musculus; experiment: Antiinflammatory activity in male C57BL/6 mouse model of DSS-induced ulcerative colitis assessed as reduction in colonic structure destruction at 10 mg/kg, po administered for 11 days with subsequent administration of DSS for 8 days by H and E staining based analysis; type: functional, organism-based; settings: time 11.0 day
[13] = tested on: Mus musculus; experiment: Antiinflammatory activity in male C57BL/6 mouse model of DSS-induced ulcerative colitis assessed as reduction in IL-6 level in serum at 10 mg/kg, po administered for 11 days with subsequent administration of DSS for 8 days by ELISA; type: functional, organism-based; settings: time 11.0 day
[14] = target: T1, Interleukin-1 receptor-associated kinase 4 (Mus musculus) (UniProt Q8R4K2); experiment: Thermal stabilization of IRAK4 in mouse RAW264.7 cells at 10 uM measured after 4 hrs by CETSA; type: cell-based
T1 sequence (whole entry): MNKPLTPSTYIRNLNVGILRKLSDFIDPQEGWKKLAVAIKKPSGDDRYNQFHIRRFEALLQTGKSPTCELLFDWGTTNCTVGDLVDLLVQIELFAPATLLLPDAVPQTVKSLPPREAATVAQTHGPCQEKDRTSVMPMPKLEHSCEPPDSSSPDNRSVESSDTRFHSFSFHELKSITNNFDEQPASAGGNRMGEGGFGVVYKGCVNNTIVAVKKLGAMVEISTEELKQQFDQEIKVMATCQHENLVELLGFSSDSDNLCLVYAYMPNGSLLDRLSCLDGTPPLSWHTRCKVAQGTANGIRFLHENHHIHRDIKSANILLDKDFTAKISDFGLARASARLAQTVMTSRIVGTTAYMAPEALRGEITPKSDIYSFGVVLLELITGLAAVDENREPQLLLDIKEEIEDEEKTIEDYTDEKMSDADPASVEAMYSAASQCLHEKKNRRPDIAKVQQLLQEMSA

[15] = tested on: Mus musculus; experiment: Antiinflammatory activity in male C57BL/6 mouse model of DSS-induced ulcerative colitis assessed as reduction in macrophage infiltration in spleen at 10 mg/kg, po administered for 11 days with subsequent administration of DSS for 8 days by F4/80 labeling based immunohistochemistry analysis; type: functional, organism-based; settings: time 11.0 day
[16] = tested on: Mus musculus; experiment: Antiinflammatory activity in male C57BL/6 mouse model of DSS-induced ulcerative colitis assessed as reduction in spleen to body weight ratio at 10 mg/kg, po administered for 11 days with subsequent administration of DSS for 8 days; type: functional, organism-based; settings: time 11.0 day

CC[C@@H]1[C@H](F)C(=O)N[C@@H]1COc1nccc2cc(C(N)=O)c(OC)cc12 [ZIMLOVISERTIB]
active: inhibition [1] | inhibition [2] | Activity [3] | Activity [4] | Activity [6] | inhibition [7] | Activity [10] | inhibition [11] | Activity [12] | Activity [13] | Activity [14] | Activity [15] | Activity [16]
inactive: Activity [5]
2.8 h: half-life [8]
5.5 cm: Activity [9]
